Results taken from US7326721B2 (Hypnion, Inc., priority 2003, dated 2008).
Several values for one entry are separate records, joined by “and”; a condition that tells them apart may be missing. Identical values can stand only once. Like-named read-outs stand apart in the source and are kept apart here.

Key:
hERG = hERG (Homo sapiens, UniProt Q12809)
M2 muscarinic receptor = biological target: T1, M2 muscarinic receptor (Homo sapiens, UniProt P08172); assay: Muscarinic M2 binding assay; design: purchased PerkinElmer, Inc., Wellesley, Mass; host or cells: CHO cells; conditions: read-out: Ki M2
T1 sequence (P08172 1-466): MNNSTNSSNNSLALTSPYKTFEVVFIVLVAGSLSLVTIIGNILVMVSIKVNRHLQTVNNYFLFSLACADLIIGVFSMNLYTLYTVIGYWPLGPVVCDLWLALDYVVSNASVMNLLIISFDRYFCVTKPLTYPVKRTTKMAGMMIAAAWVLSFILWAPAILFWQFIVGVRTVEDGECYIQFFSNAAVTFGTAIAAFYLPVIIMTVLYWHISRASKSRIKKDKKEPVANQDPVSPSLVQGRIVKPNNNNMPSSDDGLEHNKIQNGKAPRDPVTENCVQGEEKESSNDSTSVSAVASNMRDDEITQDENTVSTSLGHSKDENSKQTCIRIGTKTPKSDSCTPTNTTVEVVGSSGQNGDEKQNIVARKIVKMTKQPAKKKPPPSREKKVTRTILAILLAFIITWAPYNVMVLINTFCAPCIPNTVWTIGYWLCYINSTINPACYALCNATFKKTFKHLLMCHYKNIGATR

male Wistar rats = format: in vivo
Experimental: The Irwin screen can provide useful information on potential side effects of compounds on general physiological and behavioural functions. The screen was conducted by administering the test compounds orally in 0.25% aqueous methylcellulose using male Wistar rats, a frequently used species in such studies and for which background data are readily available.
The Irwin screen tests for numerous parameters in animals that have been administered the test compound. For example, the screen can include: in-cage effects, e.g., dispersion, respiratory rate, locomotor activity, restlessness, fighting, alertness, apathy, and exophthalmus; in-arena effects, e.g., transfer arousal, spatial locomotion, ptosis, startle, tail elevation, piloerection, touch escape, positional passivity, catalepsy, tighting reflex, visual placing, grip strength, pinna, corneal, pain response, and wire manoeuvre; parameters observed in handling, e.g., cyanosis, cutaneous blood flow, hypothermia, body tone, pupil size, light-pupil response, lacrimation, grooming, red staining, salivation, and provoked biting; general scores e.g., fearfulness, irritability, abnormal gait, abnormal body carriage, tremors, twitches, convulsions, bizarre behaviour, writhing, vocalisation, diarrhoea, number of defaecations, number of urinations, moribund, lethality, and abnormalities detected. Further details can be found in Irwin, S; Comprehensive observational assessment: I a. A systematic, quantitative procedure for assessing the behavioural and physiological state of the mouse.
Irwin screening of the disclosed sleep-inducing agents was performed by Covance (Princeton, N.J.) according to Irwin, above; Covance Standard Operating Procedure (current revision of SOP PHARM 8.10); relevant regulatory authority guidelines ICH (International Committee for Harmonization) Guideline (Topic S7A; CPMP/ICH/539/00) on Safety Pharmacology Studies for human pharmaceuticals (November 2000); and all procedures carried out on live animals were subject to the provisions of United Kingdom Law, in particular the Animals (Scientific Procedures) Act, 1986. which obliges all UK laboratories to maintain a local ethical review process to ensure that all animal use in the establishment is carefully considered and justified; that proper account is taken of all possibilities for reduction, refinement or replacement and that high standards of accommodation and care are achieved.
All test compound formulations were prepared on the day of dosing by Covance Harrogate Dispensary. The test compounds were formulated in 0.25% aqueous methylcellulose at the highest concentration required. Lower doses were obtained by serial dilution of the highest concentration using 0.25% aqueous methylcellulose. Dose levels are expressed in terms of the amount of test compound administered without regard to purity or active content. All formulations were stored at room temperature (nominally 10 to 30° C.) in sealed containers and protected from light.
An adequate number of male Wistar (Crl:WI(Glx/BRL/Han) BR:WH) rats were obtained from Charles River Ltd. (Margate, Kent, United Kingdom). The rats were approximately 5 weeks of age and weighed between 150 and 170 g on arrival. The animals were housed in groups of no more than six in polypropylene cages (33×15×13 cm) or (45×28×20 cm) with solid floors and Grade 10 woodflakes (Datesand Ltd., Cheshire, United Kingdom) as bedding. The cages were cleaned and dried before use. Aspen chew blocks were placed within the cages as a form of environmental enrichment. Routinely, holding rooms were maintained within acceptable limits for temperature and relative humidity (nominally 19 to 25° C. and 40% to 70%, respectively). These rooms were illuminated by fluorescent light for 12 hours out of each 24 hour cycle and designed to receive at least 15 fresh air changes per hour. […]

M3 muscarinic receptor = M3 muscarinic receptor (Homo sapiens, UniProt P20309); assay: Muscarinic M3 binding assay; design: purchased PerkinElmer, Inc., Wellesley, Mass; host or cells: CHO cells; conditions: read-out: Ki M3
Chain of M3 muscarinic receptor (P20309 whole entry): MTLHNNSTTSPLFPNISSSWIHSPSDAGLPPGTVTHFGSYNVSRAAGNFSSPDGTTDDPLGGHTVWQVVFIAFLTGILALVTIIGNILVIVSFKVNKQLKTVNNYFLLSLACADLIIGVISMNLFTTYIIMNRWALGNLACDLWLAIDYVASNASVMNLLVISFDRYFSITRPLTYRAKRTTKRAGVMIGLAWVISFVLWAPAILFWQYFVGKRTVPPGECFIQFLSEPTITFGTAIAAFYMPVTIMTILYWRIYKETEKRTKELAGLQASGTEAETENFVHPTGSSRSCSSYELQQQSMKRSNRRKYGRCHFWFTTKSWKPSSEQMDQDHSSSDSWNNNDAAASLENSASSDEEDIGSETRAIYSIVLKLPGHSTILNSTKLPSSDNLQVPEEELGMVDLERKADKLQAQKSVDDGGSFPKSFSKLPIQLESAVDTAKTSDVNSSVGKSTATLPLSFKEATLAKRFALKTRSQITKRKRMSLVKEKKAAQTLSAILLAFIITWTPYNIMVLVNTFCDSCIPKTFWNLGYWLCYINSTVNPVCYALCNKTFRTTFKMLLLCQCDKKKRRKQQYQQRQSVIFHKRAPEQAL

adult male Wistar rats = assay: SCORE-2000 sleep-wakefulness, locomotor activity and body temperature monitoring; format: in vivo, rat
M1 muscarinic receptor = biological target: T2, M1 muscarinic receptor (Homo sapiens, UniProt P11229); assay: Muscarinic M1 binding assay ([3H]-scopolamine, N-methyl chloride); design: purchased PerkinElmer, Inc., Wellesley, Mass; host or cells: CHO cells; conditions: read-out: Ki M1
T2 sequence (P11229 1-460): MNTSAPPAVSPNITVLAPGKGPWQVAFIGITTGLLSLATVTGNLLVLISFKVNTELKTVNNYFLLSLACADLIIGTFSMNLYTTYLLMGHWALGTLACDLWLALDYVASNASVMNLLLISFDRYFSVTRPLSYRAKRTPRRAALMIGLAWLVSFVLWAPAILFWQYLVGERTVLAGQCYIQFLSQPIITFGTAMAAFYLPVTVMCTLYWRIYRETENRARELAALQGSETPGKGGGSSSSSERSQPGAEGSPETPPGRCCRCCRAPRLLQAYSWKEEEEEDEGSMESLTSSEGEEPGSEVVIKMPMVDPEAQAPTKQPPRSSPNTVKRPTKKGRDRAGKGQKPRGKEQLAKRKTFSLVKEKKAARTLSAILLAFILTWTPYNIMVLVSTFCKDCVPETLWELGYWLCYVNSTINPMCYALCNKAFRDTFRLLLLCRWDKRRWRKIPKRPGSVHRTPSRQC

H1 histamine receptor = biological target: T3, H1 histamine receptor (Bos taurus, UniProt P30546); assay: Histamine H1 competitive binding assay ([3H]pyrilamine); design: species or system bovine; conditions: read-out: Ki H1
T3 construct: the receptors were obtained from bovine cerebellar membrane tissue; from tissue; host or cells: bovine cerebellar membranes
T3 sequence (P30546 whole entry): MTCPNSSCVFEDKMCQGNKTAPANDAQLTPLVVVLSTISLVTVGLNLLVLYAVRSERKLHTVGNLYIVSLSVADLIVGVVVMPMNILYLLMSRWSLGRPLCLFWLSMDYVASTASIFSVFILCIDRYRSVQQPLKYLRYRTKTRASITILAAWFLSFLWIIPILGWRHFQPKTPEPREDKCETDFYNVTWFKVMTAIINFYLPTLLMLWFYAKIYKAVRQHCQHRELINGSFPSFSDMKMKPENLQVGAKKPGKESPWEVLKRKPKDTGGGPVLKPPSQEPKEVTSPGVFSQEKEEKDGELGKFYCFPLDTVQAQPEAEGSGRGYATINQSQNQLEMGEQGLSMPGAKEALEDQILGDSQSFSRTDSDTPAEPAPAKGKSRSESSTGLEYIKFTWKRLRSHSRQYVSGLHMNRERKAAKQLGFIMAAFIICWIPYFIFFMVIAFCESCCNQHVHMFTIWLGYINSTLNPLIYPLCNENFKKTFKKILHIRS

Chain of hERG (Q12809 whole entry): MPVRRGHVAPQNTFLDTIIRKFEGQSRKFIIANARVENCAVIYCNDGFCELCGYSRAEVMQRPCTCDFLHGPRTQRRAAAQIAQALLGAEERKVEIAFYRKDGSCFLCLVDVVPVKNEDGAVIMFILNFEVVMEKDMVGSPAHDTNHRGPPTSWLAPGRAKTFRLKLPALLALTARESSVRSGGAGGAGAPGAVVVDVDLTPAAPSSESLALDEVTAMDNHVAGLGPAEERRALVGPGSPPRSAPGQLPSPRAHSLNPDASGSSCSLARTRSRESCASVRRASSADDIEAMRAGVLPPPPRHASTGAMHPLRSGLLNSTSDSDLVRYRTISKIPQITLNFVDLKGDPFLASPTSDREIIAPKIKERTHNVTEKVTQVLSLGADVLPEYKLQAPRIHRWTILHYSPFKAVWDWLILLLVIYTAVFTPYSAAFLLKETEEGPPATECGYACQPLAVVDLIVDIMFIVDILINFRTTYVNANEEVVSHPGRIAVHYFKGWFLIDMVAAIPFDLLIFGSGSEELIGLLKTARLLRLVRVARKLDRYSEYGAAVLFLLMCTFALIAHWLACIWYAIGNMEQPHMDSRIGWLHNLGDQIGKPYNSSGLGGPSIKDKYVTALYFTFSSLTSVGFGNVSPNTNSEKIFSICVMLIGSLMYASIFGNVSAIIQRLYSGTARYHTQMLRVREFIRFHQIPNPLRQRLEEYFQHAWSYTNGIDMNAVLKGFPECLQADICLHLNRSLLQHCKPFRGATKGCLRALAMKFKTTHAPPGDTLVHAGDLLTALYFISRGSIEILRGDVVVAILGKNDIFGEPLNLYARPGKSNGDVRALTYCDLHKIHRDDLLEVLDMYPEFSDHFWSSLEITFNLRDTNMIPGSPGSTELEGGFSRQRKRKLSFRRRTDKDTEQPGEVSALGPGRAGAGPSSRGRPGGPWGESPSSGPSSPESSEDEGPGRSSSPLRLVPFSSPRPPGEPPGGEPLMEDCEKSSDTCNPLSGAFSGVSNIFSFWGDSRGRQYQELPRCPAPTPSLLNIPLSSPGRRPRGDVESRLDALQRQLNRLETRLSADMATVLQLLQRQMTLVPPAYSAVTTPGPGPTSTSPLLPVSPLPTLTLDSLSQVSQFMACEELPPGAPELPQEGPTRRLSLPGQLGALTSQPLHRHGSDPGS

Structure (SMILES)	hERG at micromolar (% blocking of the hERG channel) (hERG; human, 10 µM, pH 7.4)	Ki (M2 muscarinic receptor)	Irwin at mg/kg dose (male Wistar rats; rat, in vivo)	Ki (M3 muscarinic receptor)	LUSB (adult male Wistar rats; dose 3 mg/kg oral at CT-18)	NREM (adult male Wistar rats; dose 3 mg/kg oral at CT-18)	LUSB (adult male Wistar rats; dose 10 mg/kg oral at CT-18)	NREM (adult male Wistar rats; dose 10 mg/kg oral at CT-18)	LUSB (adult male Wistar rats; dose 30 mg/kg oral at CT-18)	NREM (adult male Wistar rats; dose 30 mg/kg oral at CT-18)	Ki (M1 muscarinic receptor)	Ki (H1 histamine receptor)	Irwin at mg/kg dose (male Wistar rats; 30 mg/kg oral)	Irwin at mg/kg dose (male Wistar rats; 100 mg/kg oral)	other results
COc1ccc2c(c1)COc1ccccc1C2=C1CCN(CC(C)(C)C(=O)O)CC1 [Compound 50a]	9.7% @ 10	> 10 µM	clean	> 10 µM	4.8 min	12.7 min	9.3 min	32.6 min	11.2 min	41.9 min	> 10 µM	0.0272 µM			
CC(C)(CN1CCC(=C2c3ccc(Cl)cc3COc3ccccc32)CC1)C(=O)O [Compound 51a]		> 10 µM		> 10 µM	8.8 min	32.1 min	18.2 min	60.3 min	6.3 min	49.3 min	> 10 µM	0.0264 µM	some side effects	lethality	hERG at micromolar (% blocking of the hERG channel) (hERG; human, pH 7.4): 40.6%; Irwin at mg/kg dose (male Wistar rats; 10 mg/kg oral): clean
O=C(O)C1(CCN2CCC(=C3c4ccc(Cl)cc4COc4ccccc43)CC2)CC1 [Compound 59b]	28% @ 10	> 10 µM	clean	> 10 µM			12.8 min	42.4 min	6.1 min	23.1 min	> 10 µM	0.0667 µM			
O=C(O)C1(CN2CCC(=C3c4ccccc4COc4ccccc43)CC2)CC1 [Compound 69b]	12.6% @ 10	> 10 µM	clean	> 10 µM	5.9 min	14.9 min	6.2 min	44.3 min	14 min	41.6 min	> 10 µM	0.0549 µM			LUSB (adult male Wistar rats; dose 15 mg/kg oral at CT-18): 14.4 min; NREM (adult male Wistar rats; dose 15 mg/kg oral at CT-18): 43.4 min; LUSB (adult male Wistar rats; dose 20 mg/kg oral at CT-18): 11.6 min; NREM (adult male Wistar rats; dose 20 mg/kg oral at CT-18): 39.4 min
CC(C)(CCN1CCC(=C2c3ccccc3COc3ccccc32)CC1)C(=O)O [Compound 70a]		3.31 µM and 1.36 µM	clean				3.7 min	13.2 min	6 min	33.6 min	0.811 µM	0.0368 µM			hERG at micromolar (% blocking of the hERG channel) (hERG; human, 1 µM, pH 7.4): 5.1% @ 1; LUSB (adult male Wistar rats; dose 45 mg/kg oral at CT-18): 12.1 min; NREM (adult male Wistar rats; dose 45 mg/kg oral at CT-18): 29.3 min
O=C(O)C1(CCN2CCC(=C3c4ccccc4COc4ccccc43)CC2)CC1 [Compound 70b]							8.3 min						clean	some side effects	hERG at micromolar (% blocking of the hERG channel) (hERG; concentration not given): 50.2%; Irwin at mg/kg dose (male Wistar rats; 10 mg/kg oral): clean
O=C(O)CCCN1CCC(=C2c3ccccc3COc3ccccc32)CC1 [Compound 70e]		> 10 µM	10, 30 clean; 100 some side effects	> 10 µM	6.6 min	25.7 min	6.6 min	27.4 min	15 min	43.3 min	> 10 µM	0.136 µM	clean	some side effects	hERG at micromolar (% blocking of the hERG channel) (hERG): 2.7% @ 1
O=C(O)CN1CCC(=C2c3ccccc3COc3ccccc32)CC1 [Compound 71e]		5.13 µM	10, 30 clean; 100 many side effects	> 10 µM					4.1 min	34.5 min	12.1 µM	0.0607 µM	clean	many side effects	hERG at micromolar (% blocking of the hERG channel) (hERG): 3.6% @ 1
